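A five-concentration, 48-hour dose response in 96-well plates underlies each endpoint, interpolated linearly between surrounding concentrations. TGI is the concentration that stops growth completely.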
Key:
Assay in all cases: growth of human tumour cells (NCI), 48 h
OVCAR-5 ovarian = test system: OVCAR-5 ovarian
CCRF-CEM leukemia = test system: CCRF-CEM leukemia
KM12 colon = test system: KM12 colon
HCC-2998 colon = test system: HCC-2998 colon
NCI-H460 lung = test system: NCI-H460 lung
M19-MEL melanoma = test system: M19-MEL melanoma
UO-31 renal = test system: UO-31 renal
UACC-257 melanoma = test system: UACC-257 melanoma
HOP-92 NSCLC = test system: HOP-92 NSCLC
A498 renal = test system: A498 renal
DMS 114 small cell lung = test system: DMS 114 small cell lung
A549 NSCLC = test system: A549 NSCLC
COLO 205 colon = test system: COLO 205 colon
RXF 393 renal = test system: RXF 393 renal
ACHN renal = test system: ACHN renal
SF-295 CNS = test system: SF-295 CNS
DMS 273 small cell lung = test system: DMS 273 small cell lung
TK-10 renal = test system: TK-10 renal
IGROV1 ovarian = test system: IGROV1 ovarian
MOLT-4 leukemia = test system: MOLT-4 leukemia
XF 498 CNS = test system: XF 498 CNS
HT29 colon = test system: HT29 colon
NCI-H23 lung = test system: NCI-H23 lung
CAKI-1 renal = test system: CAKI-1 renal
SK-MEL-5 melanoma = test system: SK-MEL-5 melanoma
SK-MEL-2 melanoma = test system: SK-MEL-2 melanoma
SK-OV-3 ovarian = test system: SK-OV-3 ovarian
786-0 renal = test system: 786-0 renal
UACC-62 melanoma = test system: UACC-62 melanoma
SN12C renal = test system: SN12C renal
K-562 leukemia = test system: K-562 leukemia
DLD-1 colon = test system: DLD-1 colon
HL-60(TB) leukemia = test system: HL-60(TB) leukemia
EKVX NSCLC = test system: EKVX NSCLC
OVCAR-8 ovarian = test system: OVCAR-8 ovarian
SNB-75 CNS = test system: SNB-75 CNS
SNB-19 CNS = test system: SNB-19 CNS
RPMI-8226 leukemia = test system: RPMI-8226 leukemia
HCT-116 colon = test system: HCT-116 colon
OVCAR-4 ovarian = test system: OVCAR-4 ovarian
SF-539 CNS = test system: SF-539 CNS
HOP-62 NSCLC = test system: HOP-62 NSCLC
OVCAR-3 ovarian = test system: OVCAR-3 ovarian
SK-MEL-28 melanoma = test system: SK-MEL-28 melanoma
SF-268 CNS = test system: SF-268 CNS
KM20L2 colon = test system: KM20L2 colon
NCI-H226 lung = test system: NCI-H226 lung
LOX IMVI melanoma = test system: LOX IMVI melanoma
NCI-H522 lung = test system: NCI-H522 lung
HOP-18 NSCLC = test system: HOP-18 NSCLC
SW-620 colon = test system: SW-620 colon
U251 CNS = test system: U251 CNS
MALME-3M melanoma = test system: MALME-3M melanoma
SR leukemia = test system: SR leukemia
M14 melanoma = test system: M14 melanoma
HCT-15 colon = test system: HCT-15 colon
RXF-631 renal = test system: RXF-631 renal
SNB-78 CNS = test system: SNB-78 CNS

CCc1cccc(C(C)C)c1NC(=O)C(=O)C(CC(=O)Nc1ccc(Cl)c(Cl)c1)C(=O)OC (stereo not drawn)
TGI (OVCAR-5 ovarian): > 100 µM
TGI (CCRF-CEM leukemia): > 100 µM
TGI (KM12 colon): > 100 µM
TGI (HCC-2998 colon): > 100 µM
TGI (NCI-H460 lung): > 100 µM
TGI (M19-MEL melanoma): > 100 µM
TGI (UO-31 renal): > 100 µM
TGI (UACC-257 melanoma): > 100 µM
TGI (HOP-92 NSCLC): > 100 µM
TGI (A498 renal): > 100 µM
TGI (DMS 114 small cell lung): > 100 µM
TGI (A549 NSCLC): > 100 µM
TGI (COLO 205 colon): > 100 µM
TGI (RXF 393 renal): > 100 µM
TGI (ACHN renal): > 100 µM
TGI (SF-295 CNS): > 100 µM
TGI (DMS 273 small cell lung): > 100 µM
TGI (TK-10 renal): > 100 µM
TGI (IGROV1 ovarian): > 100 µM
TGI (MOLT-4 leukemia): > 100 µM
TGI (XF 498 CNS): > 100 µM
TGI (HT29 colon): > 100 µM
TGI (NCI-H23 lung): > 100 µM
TGI (CAKI-1 renal): > 100 µM
TGI (SK-MEL-5 melanoma): > 100 µM
TGI (SK-MEL-2 melanoma): > 100 µM
TGI (SK-OV-3 ovarian): > 100 µM
TGI (786-0 renal): > 100 µM
TGI (UACC-62 melanoma): 6.77 µM
TGI (SN12C renal): > 100 µM
TGI (K-562 leukemia): > 100 µM
TGI (DLD-1 colon): > 100 µM
TGI (HL-60(TB) leukemia): > 100 µM
TGI (EKVX NSCLC): > 100 µM
TGI (OVCAR-8 ovarian): > 100 µM
TGI (SNB-75 CNS): > 100 µM
TGI (SNB-19 CNS): > 100 µM
TGI (RPMI-8226 leukemia): > 100 µM
TGI (HCT-116 colon): > 100 µM
TGI (OVCAR-4 ovarian): > 100 µM
TGI (SF-539 CNS): > 100 µM
TGI (HOP-62 NSCLC): > 100 µM
TGI (OVCAR-3 ovarian): > 100 µM
TGI (SK-MEL-28 melanoma): > 100 µM
TGI (SF-268 CNS): > 100 µM
TGI (KM20L2 colon): > 100 µM
TGI (NCI-H226 lung): > 100 µM
TGI (LOX IMVI melanoma): > 100 µM
TGI (NCI-H522 lung): > 100 µM
TGI (HOP-18 NSCLC): > 100 µM
TGI (SW-620 colon): 24.6 µM
TGI (U251 CNS): > 100 µM
TGI (MALME-3M melanoma): > 100 µM
TGI (SR leukemia): > 100 µM
TGI (M14 melanoma): > 100 µM
TGI (HCT-15 colon): 32.8 µM
TGI (RXF-631 renal): > 100 µM
TGI (SNB-78 CNS): > 100 µM

C[C@]1(CO)CCC[C@@]2(C)C1CC[C@H]1CC3C[C@]12CC[C@]3(C)O (stereo partly drawn)
TGI (OVCAR-5 ovarian): > 100 µM
TGI (KM12 colon): > 100 µM
TGI (HCC-2998 colon): > 100 µM
TGI (NCI-H460 lung): 36.8 µM
TGI (UACC-257 melanoma): > 100 µM
TGI (HOP-92 NSCLC): > 100 µM
TGI (DMS 114 small cell lung): > 100 µM
TGI (A549 NSCLC): > 100 µM
TGI (COLO 205 colon): > 100 µM
TGI (RXF 393 renal): > 100 µM
TGI (ACHN renal): > 100 µM
TGI (SF-295 CNS): > 100 µM
TGI (DMS 273 small cell lung): > 100 µM
TGI (TK-10 renal): > 100 µM
TGI (MOLT-4 leukemia): > 100 µM
TGI (XF 498 CNS): > 100 µM
TGI (HT29 colon): > 100 µM
TGI (NCI-H23 lung): > 100 µM
TGI (CAKI-1 renal): > 100 µM
TGI (SK-MEL-5 melanoma): 35.2 µM
TGI (SK-OV-3 ovarian): > 100 µM
TGI (786-0 renal): > 100 µM
TGI (UACC-62 melanoma): > 100 µM
TGI (SN12C renal): > 100 µM
TGI (K-562 leukemia): > 100 µM
TGI (DLD-1 colon): > 100 µM
TGI (HL-60(TB) leukemia): 41.1 µM
TGI (OVCAR-8 ovarian): > 100 µM
TGI (SNB-75 CNS): > 100 µM
TGI (SNB-19 CNS): > 100 µM
TGI (RPMI-8226 leukemia): > 100 µM
TGI (HCT-116 colon): > 100 µM
TGI (OVCAR-4 ovarian): > 100 µM
TGI (SF-539 CNS): > 100 µM
TGI (HOP-62 NSCLC): > 100 µM
TGI (OVCAR-3 ovarian): > 100 µM
TGI (SK-MEL-28 melanoma): > 100 µM
TGI (SF-268 CNS): > 100 µM
TGI (KM20L2 colon): > 100 µM
TGI (NCI-H226 lung): > 100 µM
TGI (LOX IMVI melanoma): > 100 µM
TGI (NCI-H522 lung): 31.1 µM
TGI (SW-620 colon): > 100 µM
TGI (U251 CNS): > 100 µM
TGI (MALME-3M melanoma): > 100 µM
TGI (SR leukemia): > 100 µM
TGI (M14 melanoma): > 100 µM
TGI (HCT-15 colon): > 100 µM
TGI (RXF-631 renal): > 100 µM
TGI (SNB-78 CNS): > 100 µM

Source: PubChem BioAssay (NCI)
